The values below come from US10618903B2, “Heteroaryl substituted aminopyridine compounds” (BRISTOL-MYERS SQUIBB COMPANY, priority 2015, dated 2020).

One series addresses IRAK4 (Homo sapiens (Human), UniProt Q9NWZ3). Briefly: IRAK4 Inhibition Assay. It is filed as biochemical. Particulars: ATP 500 μM; IRAK4 0.6 nM. Put shortly: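 Mobility-shift readout: phosphorylated and unphosphorylated fluorescent peptide (1.5 μM) resolved by electrophoresis after a 60 min room-temperature reaction stopped with EDTA. Reaction holds 0.6 nM IRAK4, 500 μM ATP and 1.6% DMSO in HEPES pH 7.2/MgCl2/Brij 35/DTT buffer; percent inhibition set against vehicle and no-enzyme controls.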

A short description of another series: Caco Permeability Assay. It is filed as in vitro ADME. Particulars: human, Caco-2, Caco-2 cells, 3 μM compound. In general terms: Passage across Caco-2 layers is used to estimate intestinal permeability.
For series [1], the system named is IL-6 levels in human whole blood stimulated with a TLR2 agonist. Briefly: IRAK4 Whole Blood Assay (lipoteichoic acid/TLR2-stimulated IL-6). It is filed as cell-based. Particulars: lipoteichoic acid 10 μg/mL, IL-6 readout. Put shortly: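 ACD-A-anticoagulated human whole blood was preincubated with compounds for 60 min at 37 °C under 5% CO2. It was then stimulated with 10 μg/mL lipoteichoic acid (final) in RPMI for 5 h. IL-6 in plasma supernatants was measured by flow cytometry bead assay.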

IRAK4, sequence (Q9NWZ3 whole entry): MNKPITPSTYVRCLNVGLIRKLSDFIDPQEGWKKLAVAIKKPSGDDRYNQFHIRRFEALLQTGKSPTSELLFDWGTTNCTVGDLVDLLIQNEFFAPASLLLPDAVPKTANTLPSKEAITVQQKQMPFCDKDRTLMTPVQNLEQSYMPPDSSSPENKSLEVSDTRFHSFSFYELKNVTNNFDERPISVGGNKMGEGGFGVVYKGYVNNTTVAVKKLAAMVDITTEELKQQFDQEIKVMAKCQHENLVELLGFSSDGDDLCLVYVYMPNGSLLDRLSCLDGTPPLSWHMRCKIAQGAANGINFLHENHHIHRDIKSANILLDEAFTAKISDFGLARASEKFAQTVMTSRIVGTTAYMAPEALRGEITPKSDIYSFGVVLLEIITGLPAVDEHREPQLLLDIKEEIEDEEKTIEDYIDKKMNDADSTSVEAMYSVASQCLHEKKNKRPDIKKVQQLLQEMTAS

`CC(C)(O)[C@H](F)CNC(=O)c1cnc(-c2cnn3cc(C#N)cnc23)cc1Nc1ccn(CC(F)F)n1` [Example 230, (R)-6-(6-cyanopyrazolo[1,5-a]pyrimidin-3-yl)-4-((1-(2,2-difluoroethyl)-1H-pyrazol-3-yl)amino)-N-(2-fluoro-3-hydroxy-3-methylbutyl)nicotinamide]: the IC50 on IRAK4 was 3 nM. Besides, in “Caco Permeability Assay”, the Papp at 2 h, 3 µM was less than 1.5 ×10⁻⁶ cm/s. Besides, the concentration for a half-maximal effect (EC50) in series [1] (Homo sapiens) worked out at 430 nM.

Regarding `CC(C)(O)[C@H](F)CNC(=O)c1cnc(-c2cnn3cc(Cl)cnc23)cc1Nc1cnn(C(F)F)c1` [Example 231, (R)-6-(6-chloropyrazolo[1,5-a]pyrimidin-3-yl)-4-((1-(difluoromethyl)-1H-pyrazol-4-yl)amino)-N-(2-fluoro-3-hydroxy-3-methylbutyl) nicotinamide], the IC50 on IRAK4 was 1 nM. The same molecule had an apparent permeability coefficient (Papp) at 2 h, 3 µM in the series “Caco Permeability Assay” of 12.6 ×10⁻⁶ cm/s. For the same molecule, the EC50 in series [1] (Homo sapiens) stood at 340 nM.

Turning to `CCn1cc(Nc2cc(-c3cnn4cc(Cl)cnc34)ncc2C(=O)NC[C@@H](F)C(C)(C)O)cn1` [Example 232, (R)-6-(6-chloropyrazolo[1,5-a]pyrimidin-3-yl)-4-((1-ethyl-1H-pyrazol-4-yl)amino)-N-(2-fluoro-3-hydroxy-3-methylbutyl)nicotinamide], at IRAK4, the concentration for half-maximal inhibition (IC50) came to 1 nM. This molecule showed a Papp at 2 h, 3 µM in “Caco Permeability Assay” of 3.7 ×10⁻⁶ cm/s. In series [1] (Homo sapiens), this molecule came in with a 50% effective concentration (EC50) of 140 nM.

For the molecule `CC(C)(F)Cn1cc(Nc2cc(-c3cnn4cc(C#N)cnc34)ncc2C(=O)NC[C@@H](F)C(C)(C)O)cn1` [Example 235, (R)-6-(6-cyanopyrazolo[1,5-a]pyrimidin-3-yl)-4-((1-(2-fluoro-2-methylpropyl)-1H-pyrazol-4-yl)amino)-N-(2-fluoro-3-hydroxy-3-methylbutyl)nicotinamide], the concentration for half-maximal inhibition (IC50) on IRAK4 was 2 nM. Further, the Papp at 2 h, 3 µM in “Caco Permeability Assay” is 2.3 ×10⁻⁶ cm/s. In addition, the concentration giving a half-maximal response (EC50) in series [1] (Homo sapiens) was 200 nM.

As to `CC(C)(O)[C@H](F)CNC(=O)c1cnc(-c2cnn3cc(C#N)cnc23)cc1Nc1cnn(CC(F)(F)F)c1` [Example 236, (R)-6-(6-cyanopyrazolo[1,5-a]pyrimidin-3-yl)-N-(2-fluoro-3-hydroxy-3-methylbutyl)-4-((1-(2,2,2-trifluoroethyl)-1H-pyrazol-4-yl)amino) nicotinamide], the IC50 at IRAK4 stood at 3 nM. In the series “Caco Permeability Assay”, this molecule returned a Papp at 2 h, 3 µM of less than 1.5 ×10⁻⁶ cm/s. Also, in series [1], the EC50 worked out at 660 nM.

`CC(F)(F)Cn1cc(Nc2cc(-c3cnn4cc(C#N)cnc34)ncc2C(=O)NC[C@@H](F)C(C)(C)O)cn1` [Example 238, (R)-6-(6-cyanopyrazolo[1,5-a]pyrimidin-3-yl)-4-((1-(2,2-difluoropropyl)-1H-pyrazol-4-yl)amino)-N-(2-fluoro-3-hydroxy-3-methylbutyl)nicotinamide]: the IC50 at IRAK4 was found to be 2 nM. The same molecule returned a Papp at 2 h, 3 µM in “Caco Permeability Assay” of 2.1 ×10⁻⁶ cm/s. In series [1] (Homo sapiens), this molecule returned a concentration giving a half-maximal response (EC50) of 220 nM.

Turning to `CC(F)(F)Cn1cc(Nc2cc(-c3cnn4cc(Cl)cnc34)ncc2C(=O)NC[C@@H](F)C(C)(C)O)cn1` [Example 239, (R)-6-(6-chloropyrazolo[1,5-a]pyrimidin-3-yl)-4-((1-(2,2-difluoropropyl)-1H-pyrazol-4-yl)amino)-N-(2-fluoro-3-hydroxy-3-methylbutyl)nicotinamide], the 50% inhibitory concentration (IC50) on IRAK4 turned out to be 1 nM. Besides, the Papp at 2 h, 3 µM in the series “Caco Permeability Assay” came to 14.4 ×10⁻⁶ cm/s. This molecule showed an EC50 in series [1] (Homo sapiens) of 350 nM.

On to `Cn1cc(Nc2cc(-c3cnn4cc(C#N)cnc34)ncc2C(=O)NC[C@@H](F)C(C)(C)O)cn1` [Example 240, (R)-6-(6-cyanopyrazolo[1,5-a]pyrimidin-3-yl)-N-(2-fluoro-3-hydroxy-3-methylbutyl)-4-((1-methyl-1H-pyrazol-4-yl)amino)nicotinamide], for which, on IRAK4, the half-inhibitory concentration (IC50) was determined as 2 nM. The molecule further gave a Papp at 2 h, 3 µM in “Caco Permeability Assay” of less than 1.5 ×10⁻⁶ cm/s. This molecule also returned an EC50 in series [1] (Homo sapiens) of 180 nM.

Take `COCCn1cc(Nc2cc(-c3cnn4cc(Cl)cnc34)ncc2C(=O)NC[C@@H](F)C(C)(C)O)cn1` [Example 242, (R)-6-(6-chloropyrazolo[1,5-a]pyrimidin-3-yl)-N-(2-fluoro-3-hydroxy-3-methylbutyl)-4-((1-(2-methoxyethyl)-1H-pyrazol-4-yl)amino) nicotinamide]: the IC50 at IRAK4 amounted to 2 nM. In addition, the apparent permeability (Papp) at 2 h, 3 µM in the series “Caco Permeability Assay” worked out at 2.1 ×10⁻⁶ cm/s. The same molecule had a concentration for a half-maximal effect (EC50) in series [1] (Homo sapiens) of 60 nM.

As to `COCCn1cc(Nc2cc(-c3cnn4cc(C#N)cnc34)ncc2C(=O)NC[C@@H](F)C(C)(C)O)cn1` [Example 243, (R)-6-(6-cyanopyrazolo[1,5-a]pyrimidin-3-yl)-N-(2-fluoro-3-hydroxy-3-methylbutyl)-4-((1-(2-methoxyethyl)-1H-pyrazol-4-yl)amino)nicotinamide], the concentration for half-maximal inhibition (IC50) on IRAK4 turned out to be 3 nM. In the series “Caco Permeability Assay”, this molecule registered a Papp at 2 h, 3 µM of less than 1.5 ×10⁻⁶ cm/s. The response in series [1] (Homo sapiens) was half-maximal at 160 nM (EC50).

On to `Cc1cc(Nc2cc(-c3cnn4cc(C#N)cnc34)ncc2C(=O)NC[C@@H](F)C(C)(C)O)n(C)n1` [Example 244, (R)-6-(6-cyanopyrazolo[1,5-a]pyrimidin-3-yl)-4-((1,3-dimethyl-1H-pyrazol-5-yl)amino)-N-(2-fluoro-3-hydroxy-3-methylbutyl)nicotinamide], for which the half-maximal inhibitory concentration (IC50) at IRAK4 amounted to 8 nM. In addition, the Papp at 2 h, 3 µM in the series “Caco Permeability Assay” is less than 1.5 ×10⁻⁶ cm/s. For the same molecule, the EC50 in series [1] (Homo sapiens) worked out at 380 nM.

As to `CC(F)(F)Cn1ccc(Nc2cc(-c3cnn4cc(C#N)cnc34)ncc2C(=O)NC[C@@H](F)C(C)(C)O)n1` [Example 245, (R)-6-(6-cyanopyrazolo[1,5-a]pyrimidin-3-yl)-4-((1-(2,2-difluoropropyl)-1H-pyrazol-3-yl)amino)-N-(2-fluoro-3-hydroxy-3-methylbutyl)nicotinamide], the concentration for half-maximal inhibition (IC50) on IRAK4 was 4 nM. Besides, in the series “Caco Permeability Assay”, the Papp at 2 h, 3 µM was 1.8 ×10⁻⁶ cm/s. In series [1] (Homo sapiens), this molecule showed an EC50 of 410 nM.

Turning to `CC(C)(O)[C@H](F)CNC(=O)c1cnc(-c2cnn3cc(Cl)cnc23)cc1Nc1cnn(C2CC2)c1` [Example 246, (R)-6-(6-chloropyrazolo[1,5-a]pyrimidin-3-yl)-4-((1-cyclopropyl-1H-pyrazol-4-yl)amino)-N-(2-fluoro-3-hydroxy-3-methylbutyl)nicotinamide], at IRAK4, the IC50 turned out to be 1 nM. Besides, the apparent permeability coefficient (Papp) at 2 h, 3 µM in “Caco Permeability Assay” was 4.7 ×10⁻⁶ cm/s. In addition, the EC50 in series [1] (Homo sapiens) amounted to 130 nM.

`CC(C)Cn1cc(Nc2cc(-c3cnn4cc(Cl)cnc34)ncc2C(=O)NC[C@@H](F)C(C)(C)O)cn1` [Example 247, (R)-6-(6-chloropyrazolo[1,5-a]pyrimidin-3-yl)-N-(2-fluoro-3-hydroxy-3-methylbutyl)-4-((1-isobutyl-1H-pyrazol-4-yl)amino)nicotinamide]: the IC50 at IRAK4 was found to be 2 nM. This molecule returned a Papp at 2 h, 3 µM in “Caco Permeability Assay” of 8.1 ×10⁻⁶ cm/s. This molecule gave an EC50 in series [1] (Homo sapiens) of 360 nM.

Consider `CC(C)(O)[C@H](F)CNC(=O)c1cnc(-c2cnn3cc(C#N)cnc23)cc1Nc1cnn(C2CC2)c1` [Example 248, (R)-6-(6-cyanopyrazolo[1,5-a]pyrimidin-3-yl)-4-((1-cyclopropyl-1H-pyrazol-4-yl)amino)-N-(2-fluoro-3-hydroxy-3-methylbutyl)nicotinamide], for which, on IRAK4, the IC50 turned out to be 2 nM. In “Caco Permeability Assay”, this molecule gave a Papp at 2 h, 3 µM of less than 1.5 ×10⁻⁶ cm/s. Moreover, the 50% effective concentration (EC50) in series [1] (Homo sapiens) came to 370 nM.

Take `CC(C)(O)[C@H](F)CNC(=O)c1cnc(-c2cnn3cc(C#N)cnc23)cc1Nc1cnn(CC2CC2)c1` [Example 249, (R)-6-(6-cyanopyrazolo[1,5-a]pyrimidin-3-yl)-4-((1-(cyclopropylmethyl)-1H-pyrazol-4-yl)amino)-N-(2-fluoro-3-hydroxy-3-methylbutyl)nicotinamide]: at IRAK4, the IC50 worked out at 2 nM. In “Caco Permeability Assay”, the Papp at 2 h, 3 µM is less than 1.5 ×10⁻⁶ cm/s. This molecule also gave a concentration giving a half-maximal response (EC50) in series [1] (Homo sapiens) of 400 nM.

On to `CC(C)(O)[C@H](F)CNC(=O)c1cnc(-c2cnn3cc(Cl)cnc23)cc1Nc1cnn(C2CCC2)c1` [Example 250, (R)-6-(6-chloropyrazolo[1,5-a]pyrimidin-3-yl)-4-((1-cyclobutyl-1H-pyrazol-4-yl)amino)-N-(2-fluoro-3-hydroxy-3-methylbutyl)nicotinamide], for which, at IRAK4, the half-inhibitory concentration (IC50) came to 1 nM. This molecule also displayed a Papp at 2 h, 3 µM in “Caco Permeability Assay” of 6.6 ×10⁻⁶ cm/s. In addition, the EC50 in series [1] (Homo sapiens) was 200 nM.

Regarding `CC(C)(O)[C@H](F)CNC(=O)c1cnc(-c2cnn3cc(Cl)cnc23)cc1Nc1cnn(CC2CC2)c1` [Example 251, (R)-6-(6-chloropyrazolo[1,5-a]pyrimidin-3-yl)-4-((1-(cyclopropylmethyl)-1H-pyrazol-4-yl)amino)-N-(2-fluoro-3-hydroxy-3-methylbutyl)nicotinamide], the IC50 on IRAK4 turned out to be 1 nM. The molecule further had an apparent permeability (Papp) at 2 h, 3 µM in the series “Caco Permeability Assay” of 7.6 ×10⁻⁶ cm/s. Besides, the half-maximal effective concentration (EC50) in series [1] (Homo sapiens) was determined as 410 nM.

For `CC(C)(O)CCNC(=O)c1cnc(-c2cnn3cc(Cl)cnc23)cc1Nc1cnn(CC(F)F)c1` [Example 253, 6-(6-chloropyrazolo[1,5-a]pyrimidin-3-yl)-4-((1-(2,2-difluoroethyl)-1H-pyrazol-4-yl)amino)-N-(3-hydroxy-3-methylbutyl)nicotinamide], the concentration for half-maximal inhibition (IC50) on IRAK4 is 1 nM. Moreover, the Papp at 2 h, 3 µM in “Caco Permeability Assay” worked out at 4.8 ×10⁻⁶ cm/s. In addition, in series [1] (Homo sapiens), the midpoint of the response, the EC50, lay at 160 nM.

On to `CC(C)(F)[C@H](F)CNC(=O)c1cnc(-c2cnc3cc(C#N)cnn23)cc1Nc1cnn(CC(F)F)c1` [Example 258, (R)-6-(7-cyanoimidazo[1,2-b]pyridazin-3-yl)-N-(2,3-difluoro-3-methylbutyl)-4-((1-(2,2-difluoroethyl)-1H-pyrazol-4-yl)amino)nicotinamide], for which the IC50 at IRAK4 stood at 2 nM. In the series “Caco Permeability Assay”, the apparent permeability coefficient (Papp) at 2 h, 3 µM was 5.9 ×10⁻⁶ cm/s. In series [1] (Homo sapiens), this molecule came in with a half-maximal effective concentration (EC50) of 180 nM.

For the molecule `CC(C)(O)[C@H](F)CNC(=O)c1cnc(-c2cnc3cc(C#N)cnn23)cc1Nc1cnn(C2CC(F)(F)C2)c1` [Example 259, (R)-6-(7-cyanoimidazo[1,2-b]pyridazin-3-yl)-4-((1-(3,3-difluorocyclobutyl)-1H-pyrazol-4-yl)amino)-N-(2-fluoro-3-hydroxy-3-methylbutyl)nicotinamide], the IC50 on IRAK4 was determined as 2 nM. Moreover, the apparent permeability (Papp) at 2 h, 3 µM in the series “Caco Permeability Assay” is less than 1.5 ×10⁻⁶ cm/s. A half-maximal response in series [1] (Homo sapiens) (EC50) required 130 nM.

The IC50 is the concentration that inhibits the measured activity by half. By Papp is commonly meant a coefficient for how fast a substance crosses the barrier. The EC50 is the concentration at which the effect is half-maximal. High values mean a need for much substance, low ones an effect from little substance.
